In article PMC5478727, “A Novel Small Molecule GDNF Receptor RET Agonist, BT13, Promotes Neurite Growth from Sensory Neurons in Vitro and Attenuates Experimental Neuropathy in the Rat” (Frontiers in Pharmacology, 2017):
Several values for one entry are separate records, joined by “and”; a condition that tells them apart may be missing. Equal entries are not always repeated.

Columns and labels:
[1] = tested on: rats with spinal nerve ligation (L5/L6); assay: Spinal nerve ligation (Chung's) model of experimental neuropathy, von Frey test
[2] = tested on: adult rat lumbar DRG sensory neurons; assay: Neurite outgrowth from cultured DRG neurons; type: cell-based; conditions: for effect of pre-treatment on BT13-stimulated neurite outgrowth: LY294002 50 μM; for effect of pre-treatment on BT13-stimulated neurite outgrowth / block of BT13-stimulated neurite outgrowth, maximum length, mean difference / block of BT13-stimulated neurite outgrowth, total length, mean difference: PD98059 50 μM, SU6656 2 μM; for block of BT13-stimulated neurite outgrowth, maximum length, mean difference / block of BT13-stimulated neurite outgrowth, total length, mean difference: pre-treatment with inhibitor: LY294002 50 μM
Procedure: Cultured lumbar DRG (L3–L5) neurons were prepared using a published method (O'Mullane et al., [2013]). After plating onto poly-L-ornithine (5 μg/ml)/laminin (5 μg/ml) coated coverslips for 1 h, DRG neurons were cultured for 24–30 h in fresh Neurobasal A/B27. GFLs, BT13, NGF, and vehicle control were added at the start of this period for a 24–30 h treatment, except when preceded by pre-treatment (1 h) with inhibitors (50 μM LY294002; 2 μM SU6656, […]; Biomol Research Laboratories, Plymouth Meeting, PA, USA). DRG neurons were then fixed (4% paraformaldehyde) and processed for immunocytochemistry with 1:200 Mouse anti-β III tubulin/AlexaFluor 594 (Sigma-Aldrich Cat# T8660 RRID:AB_477590) and 1:5,000 rabbit anti-calcitonin gene-related peptide/AlexaFluor 488 (Sigma-Aldrich Cat# C8198 RRID:AB_259091) and DAPI for nuclear staining (0.5 μg/ml, Molecular Probes). Image analysis of multichannel 12 bit Zeiss .ZVI or .TIF files (captured with a Zeiss Imager.M1/MRm camera/Zen software; Carl Zeiss Australia, North Ryde, NSW, Australia) was then performed by a researcher blinded to the experimental condition. Neurite initiation was measured by a single parameter (proportion of neurons with neurites longer than the soma diameter). Neurite elongation was measured by batch processing (HCA-Vision software; CSIRO Mathematical and Information Sciences, North Ryde, NSW, Australia) to obtain four parameters—Root number: number of primary neurites; Maximum length: length of longest neurite; Branch points: number of neurite branch points; and Total length: sum of neurite lengths (Kalous and Keast, [2010]; Kalous et al., [2012]). The number of neurons of each immunocytochemical class counted on each coverslip (technical replicates) was 50 for neurite initiation and 20 for neurite elongation. A minimum of three cultures from different rats (biological replicates) were analyzed for each treatment group.

[3] = biological target: neurotensin receptor NT; assay: CEREP NT (non-selective; agonist radioligand); type: binding; conditions: reference compound, Cat. No. 0465
[4] = biological target: T1, serotonin receptor 5-HT2C (Homo sapiens, UniProt P28335); assay: CEREP 5-HT2C (h) (antagonist radioligand); type: binding; conditions: reference compound
T1 construct: purchased CEREP (contract assay) 0137, 1003
T1 sequence (P28335 33-458): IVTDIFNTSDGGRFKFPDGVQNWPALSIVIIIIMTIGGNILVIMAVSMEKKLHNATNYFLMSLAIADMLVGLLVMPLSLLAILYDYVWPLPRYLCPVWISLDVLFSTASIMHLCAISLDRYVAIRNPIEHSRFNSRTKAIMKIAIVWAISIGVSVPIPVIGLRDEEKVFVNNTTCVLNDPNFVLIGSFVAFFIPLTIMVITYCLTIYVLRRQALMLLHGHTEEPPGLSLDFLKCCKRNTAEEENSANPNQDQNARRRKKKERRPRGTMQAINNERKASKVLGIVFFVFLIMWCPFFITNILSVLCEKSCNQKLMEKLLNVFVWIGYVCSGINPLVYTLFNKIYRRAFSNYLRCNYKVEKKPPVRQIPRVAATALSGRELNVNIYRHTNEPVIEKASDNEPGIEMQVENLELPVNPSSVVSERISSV

[5] = biological target: T1, serotonin receptor 5-HT2C; assay: CEREP 5-HT2C (h) (agonist radioligand); type: binding; conditions: reference compound
[6] = biological target: T2, GFRα1/RET (Homo sapiens, UniProt P07949); set-up: method as in Sidorova et al., 2010; conditions: GDNF in this assay, ref Sidorova et al., 2010, cited from earlier work
T2 construct: full-length human RET (long isoform) in pCR3.1; expressed in transfected cells; host or cells: MG87 murine fibroblasts (MG87RET + PathDetect Elk-1 + GFRα1)
T2 sequence (P07949 29-1114): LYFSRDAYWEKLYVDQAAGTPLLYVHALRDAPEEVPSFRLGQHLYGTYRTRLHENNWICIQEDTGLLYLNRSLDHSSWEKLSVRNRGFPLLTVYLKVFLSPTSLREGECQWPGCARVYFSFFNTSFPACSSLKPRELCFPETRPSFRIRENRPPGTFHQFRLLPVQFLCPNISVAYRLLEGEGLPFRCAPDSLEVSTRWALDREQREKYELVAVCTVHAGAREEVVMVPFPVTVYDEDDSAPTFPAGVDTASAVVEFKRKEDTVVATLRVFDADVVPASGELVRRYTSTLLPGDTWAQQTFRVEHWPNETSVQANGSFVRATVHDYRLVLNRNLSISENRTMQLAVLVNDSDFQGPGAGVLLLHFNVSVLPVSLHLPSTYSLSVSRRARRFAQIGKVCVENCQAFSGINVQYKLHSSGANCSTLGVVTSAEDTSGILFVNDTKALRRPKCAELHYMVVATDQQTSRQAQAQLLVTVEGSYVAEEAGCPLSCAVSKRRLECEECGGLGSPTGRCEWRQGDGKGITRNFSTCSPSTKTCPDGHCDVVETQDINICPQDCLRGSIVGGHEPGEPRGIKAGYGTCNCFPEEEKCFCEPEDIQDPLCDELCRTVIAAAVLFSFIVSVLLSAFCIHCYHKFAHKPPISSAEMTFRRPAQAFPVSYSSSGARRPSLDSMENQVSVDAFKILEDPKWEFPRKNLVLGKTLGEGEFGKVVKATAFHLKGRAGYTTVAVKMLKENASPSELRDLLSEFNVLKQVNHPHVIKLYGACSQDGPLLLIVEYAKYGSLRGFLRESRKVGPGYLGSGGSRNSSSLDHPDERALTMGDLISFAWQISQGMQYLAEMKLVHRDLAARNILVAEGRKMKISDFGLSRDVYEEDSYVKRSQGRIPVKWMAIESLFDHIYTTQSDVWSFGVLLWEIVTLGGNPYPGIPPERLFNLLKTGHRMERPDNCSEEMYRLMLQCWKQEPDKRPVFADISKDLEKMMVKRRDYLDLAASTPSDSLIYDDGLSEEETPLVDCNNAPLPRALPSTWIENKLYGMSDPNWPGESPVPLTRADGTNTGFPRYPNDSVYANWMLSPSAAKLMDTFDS

[7] = tested on: dorsal root ganglia neurons of SNL rats; assay: Immunohistochemistry of DRG neuronal markers in rats with spinal nerve ligation; type: in vivo, rat; conditions: IHC
From the text: DRGs from rats with spinal nerve ligation treated with BT13 or vehicle were embedded in paraffin and sectioned (7 μm thickness). Sections were deparaffinized, subjected to citrate or basic antigen-retrieval procedure and probed with IB4-Alexa 488 [1:200; IB4-Alexa488, Cat# IB4 (isolectin Griffonia simplicifolia IB4) RRID:AB_2314664] and antibodies against calcitonin gene-related peptide (CGRP; 1:10,000, Peninsula Laboratory, Cat# T-4032 RRID:AB_2313775), NPY (1:10,000, Peninsula Laboratory, Cat# T-4070.0050 RRID:AB_518504), pErk1/2 (1:300, Cell Signaling, Cat# 4370L RRID:AB_2297462), pS6 (1:300, Cell Signaling, Cat# 4858L RRID:AB_1031194) or RET [1:100, kind gift of Dr. E. Kramer, Center for Molecular Neurobiology, University Medical Center Hamburg-Eppendorf, Hamburg, Germany (Meka et al., [2015])] and corresponding secondary antibodies conjugated with fluorophores (Donkey Anti-Rabbit Alexa Fluor 647 conjugate, Cat# A31573 RRID:AB_162544; Donkey anti-Mouse Alexa Fluor 647 conjugate, Cat# A-31571 RRID:AB_2536181; Goat anti-Guinea Pig, Alexa Fluor 568 conjugate, Cat# A-11075 RRID:AB_2534119, Thermo Fisher Scientific, USA) or horse radish peroxidase (VECTASTAIN Elite ABC-Peroxidase Kit antibody, Vector Laboratories, CA, USA, Cat# PK-6101 RRID:AB_2336820). In the latter case, to reveal staining slides were treated with ABC and DAB staining kits (Vector Laboratories, CA, USA) according to the manufacturer's instructions. Sections were co-stained with guinea pig anti-PGP9.5 antibodies (Abcam Cat# ab10410 RRID:AB_297150) whenever possible. Nuclei were visualized using hematoxylin or DAPI dyes. Sections were mounted in Immu-Mount (Thermo Scientific, Cat#9990402) or Coverquick 2000 (Q PATH, Cat#05547530) mounting media and images were taken with fluorescent (Zeiss Imager M2 Axio, Carl Zeiss, Germany) or bright-field (Olympus BX-61, Olympus, Japan) microscopes. Neurons were counted for two sections per DRG and the number of cell profiles with nuclei positive for each specific marker was normalized to the total number of the neurons (identified by PGP9.5 staining or by morphology) per section. Ret-positive neurons were clustered by size using Matlab software R2014b (Mathworks, USA). Statistical analysis was performed using data from three to six individual animals. To obtain sufficient sample size, the data from animals treated with 20 and 25 mg/kg of BT13 were combined.

[8] = gabapentin single oral dose 100 mg/kg on day 12, 1 h before test

NCC1(CC(=O)O)CCCCC1 [gabapentin, reference compound]
contralateral PWT [1, 8]: 26 ± 0.0
ipsilateral PWT [1, 8]: 24.2 ± 1.83

COc1cccc(-c2cc(=O)c3ccccc3o2)c1N [PD98059, reference compound]
effect of pre-treatment on BT13-stimulated neurite outgrowth [2]: completely blocked
block of BT13-stimulated neurite outgrowth, maximum length, mean difference ([2]; BT13 100 ng/ml): 78 ± 17 μm
block of BT13-stimulated neurite outgrowth, total length, mean difference ([2]; BT13 100 ng/ml): 449 ± 113 μm

Neurotensin
IC50 [3]: 2.9 nM
Ki ([3]; read-out: Ki Ref): 2.7 nM

CN(C)S(=O)(=O)c1ccc2c(c1)/C(=C/c1cc3c([nH]1)CCCC3)C(=O)N2 [SU6656, reference compound]
effect of pre-treatment on BT13-stimulated neurite outgrowth [2]: completely blocked
block of BT13-stimulated neurite outgrowth, maximum length, mean difference ([2]; BT13 100 ng/ml): 116 ± 53 μm
block of BT13-stimulated neurite outgrowth, total length, mean difference ([2]; BT13 100 ng/ml): 1098 ± 343 μm

COc1cc(OC)c(C(=O)CCCCN2CCC3(CC2)NC(=O)NC3=O)cc1NS(=O)(=O)c1ccc(C(F)(F)F)cc1 [RS 102221]
IC50 ([4]; Cat. No. 0137): 3 nM
Ki ([4]; Cat. No. 0137, read-out: Ki Ref): 0.99 nM

O=c1cc(N2CCOCC2)oc2c(-c3ccccc3)cccc12 [LY294002, reference compound]
effect of pre-treatment on BT13-stimulated neurite outgrowth [2]: completely blocked
block of BT13-stimulated neurite outgrowth, branch points, mean difference ([2]; pre-treatment with LY294002 50 μM, BT13 100 ng/ml): 22 ± 5
block of BT13-stimulated neurite outgrowth, maximum length, mean difference ([2]; BT13 100 ng/ml): 100.7 ± 13 μm
block of BT13-stimulated neurite outgrowth, total length, mean difference ([2]; BT13 100 ng/ml): 817 ± 207 μm

COc1cc(CC(C)N)c(OC)cc1I (racemic) [(±)DOI]
IC50 ([5]; Cat. No. 1003): 0.46 nM
Ki ([5]; Cat. No. 1003, read-out: Ki Ref): 0.42 nM

B1: glial cell line-derived neurotrophic factor (protein, UniProt P39905 78-211, looked up)
Glial cell line-derived …: SPDKQMAVLPRRERNRQAAAANPENSRGKGRRGQRGKNRGCVLTAIHLNVTDLGLGYETKEELIFRYCSGSCDAAETTYDKILKNLSRNRRLVSDKVGQACCRPIAFDDDLSFLDDNLVYHILRKHSAKRCGCI
notes: GDNF family ligand protein from PeproTech
efficacy, fold induction of luciferase above baseline [6]: 84.9 fold and 50–100 fold
EC50 ([6]; read-out: EC50, luciferase activation): 1.2 nM

B2: artemin (protein, UniProt Q5T4W7 108-220, looked up)
Artemin: AGGPGSRARAAGARGCRLRSQLVPVRALGLGHRSDELVRFRFCSGSCRRARSPHDLSLASLLGAGALRPPPGSRPVSQPCCRPTRYEAVSFMDVNSTWRTVDRLSATACGCLG
notes: as for B1
neurite initiation or extension ([2]; CGRP-negative neurons, NGF 10 ng/ml, ARTN 30 ng/ml, BT13 100 ng/ml): no effect
neurite elongation significantly increased ([2]; CGRP-positive neurons, ARTN 30 ng/ml): not
neurite initiation ([2]; CGRP-positive neurons, NGF 10 ng/ml, ARTN 30 ng/ml, BT13 100 ng/ml, overnight): significantly increased
proportion of DRG neurons that expressed CGRP in culture ([2]; NGF 10 ng/ml, ARTN 30 ng/ml, BT13 100 ng/ml): did not alter
reduction in the number of RET-positive cells in DRGs after SNL ([7]; day 12 after SNL): restored
number of large RET-positive neurons in lesioned DRGs ([7]; size above 1,000 μm^2, vs contralateral): increased
number of small RET-positive neurons in lesioned DRGs ([7]; size below 1,000 μm^2, vs contralateral): decreased
increase of ipsilateral paw withdrawal threshold (PWT) ([1]; ARTN 0.5 mg/kg s.c. on days 1, 3, 5, 8, 10, 12, von Frey, day 12 post-surgery): 2.6 times
